Measurements from patent EP4782447A1, “HETEROAROMATIC SULFONAMIDE STRUCTURAL COMPOUND, PHARMACEUTICAL COMPOSITION THEREOF, AND USE THEREOF” (Shanghai Yingli Pharmaceutical Co., Ltd, priority 2023, dated 2025).

How the values were obtained:
PARG (389-976) = molecular target: T1, PARG (389-976) (Homo sapiens, UniProt Q86W56); experiment: PARG enzyme inhibition assay (TR-FRET); assay type: biochemical; conditions: PARG 1.5 pM, Bio PARylated His-TEV-PARP1 substrate 12 nM
T1 construct: 5 µL of PARG (389-976) (manufactured by ChemPartner Co., Ltd.) was added into the 384-well plate; purchased ChemPartner Co., Ltd
Protocol: The in vitro PARG assay experiment was performed in a standard 384-well plate with a total reaction volume of 15 µL. In a buffer solution (50 mM Tris-HCl pH 7.5, 30 mM KCl, 1 mM EDTA, 3 mM DTT, 0.01% Tween-20, 0.025% BSA), 5 µL of PARG (389-976) (manufactured by ChemPartner Co., Ltd.) was added into the 384-well plate containing test compounds (with various concentrations) to obtain a final concentration of 1.5 pM, followed by incubation at room temperature for 30 minutes. Subsequently, 5 µL of Bio PARylated His-TEV-PARP1 (2-1014) substrate (manufactured by ChemPartner Co., Ltd.) was added into the above reaction mixture to obtain a final concentration of 12 nM, and the reaction was carried out at room temperature for 30 minutes after the addition was completed. Then, 5 µL of detection reagent was added. The detection reagent was prepared by buffer solution (50 mM Tris-HCl pH 7.5, 30 mM KCl, 1 mM EDTA, 3 mM DTT, 0.01% Tween-20, 0.025% BSA) consisting of 3 µM compound PDD00017273, 9 nM Mab anti-6HIS XL665 (Cisbio: 61HISXLA) and 0.9 nM streptavidin cryptate (Cisbio: 610SATLA). All three components were used at 3X working concentration, corresponding to final concentrations of 1 µM, 3 nM and 0.3 nM, respectively. After incubation at room temperature for 120 minutes in the dark place, the TR-FRET signals were measured at an excitation wavelength (Ex) of 340 nm, emission wavelengths (Em) of 665 nm and 615 nm. The ratio for each well was calculated as Em 665 / Em 615, and the compound inhibition rate was determined based on the obtained data. Table 1 Biochemical activity against PARG of the representative compounds of the rresent invention

[1] = Pharmacokinetic study of mice via intravenous injection and oral administration; assay type: in vivo; conditions: mouse, male CD-1 mice, plasma, a: mixed blood samples, b: mean of individual samples
Protocol: Plasma samples from male C57BL/6J mice or male CD-1 mice after intravenous injection and oral administration dosing with the tested compound, were collected from the orbital venous plexus at 8-9 time points (e.g., 5 min, 15 min, 30 min, 1 h, 2 h, 4 h, 7 h, 24 h or 5 min, 15 min, 30 min, 1 h, 2 h, 4 h, 6 h, 8 h, 24 h). The collected blood samples were transferred to microcentrifuge tubes containing EDTA-K2 anticoagulant, centrifuged at 4000 g and 4°C for 5 min. The resulting supernatant was pipetted and stored in a -75°C ± 15°C refrigerator . The compound concentrations in plasma samples at different time points were determined via LC-MS/MS, and the relevant pharmacokinetic parameters were calculated using WinNonlin software. Table 3-1 Pharmacokinetic determination results of the representative compounds of the present disclosure

HCC1395 = experiment: Inhibitory effect on cell line proliferation detected by CTG assay; assay type: cell-based; conditions: Homo sapiens, 168 h; HCC1395 cells, 7 days, CellTiter-Glo
Protocol: The relevant assays were performed in 3 84-well plates or 96-well plates. The detailed procedure is as follows: The tested cell suspension was added into 384-well or 96-well plates (excluding peripheral wells) (384-well plate: 50 µL; 96-well plate: 100 µL), and the plates were incubated in a carbon dioxide incubator overnight; specifically, HCC1395 and HCC1428 cells were incubated in a 5% carbon dioxide incubator at 37°C overnight. The tested compounds (9-10 compound concentration gradients via 3-fold serial dilution) were added into the corresponding well by a HPD300 micro-dosing instrument. The cell plates were incubated in a carbon dioxide incubator for 7 days; specifically, for HCC1395 and HCC1428 cells, maintaining the incubation condition at 5% carbon dioxide and 37°C throughout this period. On the day of detection, firstly, the 384-well or 96-well plates were equilibrated at room temperature for 10-30 minutes, and then CellTiter-Glo reagent was added into each plate (384-well plate: 25 µL; 96-well plate: 100 µL), the plates were shaked for 10 minutes in the dark place, and incubated for another 10 minutes. The plates were placed into the Victor NIVO microplate reader for measurement. The efficacy inhibition rate curves were ploted using XLFit software and the IC50 values were calculated. Table 2 Anti-proliferative activity assay results of the representative compounds of the present disclosure against cell lines

[2] = tested on: HCC1428 cell-derived tumors; experiment: In vivo pharmacodynamic study, subcutaneously implanted HCC1428 tumor model; conditions: 30 mg/kg PO, BID*28; BALB/c nude mice with subcutaneous HCC1428 tumors; start at average tumor volume 195 mm^3
Protocol: Estrogen was administered to BALB/c nude mice via injection twice weekly until the end of the experiment, subcutaneous inoculation with 1×10^7 HCC1428 cells (suspended in 100 µL of RPMI medium supplemented with Matrigel at a 1:1 volume ratio). Grouping and drug administration were initiated when the average tumor volume reached 150-200 mm^3. During the experiment, the body weight of the mice and tumor size were measured twice weekly, and the clinical symptoms of the animals were observed and recorded daily. The length (a) and width (b) of the tumors were measured using a vernier caliper, and the tumor volume was calculated according to the formula: TV = a×b^2/2. The tumor growth inhibition rate (TGI, %) was calculated based on the tumor volume using the formula: TGI (%) = [1 - (Ti - T0)/ (Vi - V0)] ×100%, wherein Ti represents the mean tumor volume of the treatment group on the i-th day after grouping, T0 represents the mean tumor volume of the treatment group at the time of grouping, Vi represents the mean tumor volume of the vehicle control group on the i-th day after grouping, and V0 represents the mean tumor volume of the vehicle control group at the time of grouping.

[3] = Intravenous administration (5mg/kg)
[4] = in vivo, Intravenous administration (5mg/kg)
[5] = in vivo, Oral administration (10mg/kg)

T1 sequence (Q86W56 389-976): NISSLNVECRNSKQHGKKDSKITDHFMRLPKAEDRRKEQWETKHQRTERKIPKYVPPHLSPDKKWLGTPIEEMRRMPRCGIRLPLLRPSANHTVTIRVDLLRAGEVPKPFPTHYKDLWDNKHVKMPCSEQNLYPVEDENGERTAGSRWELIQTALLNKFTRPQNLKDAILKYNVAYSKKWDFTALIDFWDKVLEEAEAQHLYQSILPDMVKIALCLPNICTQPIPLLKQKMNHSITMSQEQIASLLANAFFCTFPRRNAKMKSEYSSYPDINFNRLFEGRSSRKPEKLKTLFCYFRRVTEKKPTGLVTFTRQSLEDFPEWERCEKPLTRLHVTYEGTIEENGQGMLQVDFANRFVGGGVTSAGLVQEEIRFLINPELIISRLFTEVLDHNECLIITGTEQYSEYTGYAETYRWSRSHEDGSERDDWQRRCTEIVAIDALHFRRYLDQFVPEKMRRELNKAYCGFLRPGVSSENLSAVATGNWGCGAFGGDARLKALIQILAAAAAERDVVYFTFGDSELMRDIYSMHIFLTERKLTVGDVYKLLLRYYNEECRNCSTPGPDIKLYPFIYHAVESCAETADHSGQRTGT

CC(C)S(=O)(=O)N1CC=C(c2c(F)c(S(=O)(=O)NC3(C#N)CC3)cc3c(-c4nnc(C(F)(F)F)s4)nn(C)c23)CC1 [Compound 1]
IC50 (PARG (389-976)): 0.23 nM
AUC(0-inf) [1, 3]: 44100 ng·h/mL
AUC(0-t) [1, 3]: 44000 ng·h/mL
clearance [1, 3]: 1.89 mL/min/kg
AUC(0-inf) ([1]; Oral administration (10mg/kg)): 32800 ng·h/mL
AUC(0-t) ([1]; Oral administration (10mg/kg)): 32800 ng·h/mL
Cmax ([1]; Oral administration (10mg/kg)): 4320 ng/mL
IC50 (HCC1395): 0.0949 µM
Tumor Growth Inhibition Rate TGI (%) [2]: 106.8%

CC1=C(c2c(F)c(S(=O)(=O)NC3(C#N)CC3)cc3c(-c4nnc(C(F)(F)F)s4)nn(C)c23)CCN(S(=O)(=O)C(C)C)C1 [Compound 2]
IC50 (PARG (389-976)): 0.3 nM
AUC(0-inf) [1, 3]: 50100 ng·h/mL
AUC(0-t) [1, 3]: 49600 ng·h/mL
clearance [1, 3]: 1.68 mL/min/kg
AUC(0-inf) ([1]; Oral administration (10mg/kg)): 46900 ng·h/mL
AUC(0-t) ([1]; Oral administration (10mg/kg)): 46700 ng·h/mL
Cmax ([1]; Oral administration (10mg/kg)): 5370 ng/mL
IC50 (HCC1395): 0.0368 µM

CC(C)S(=O)(=O)N1CC=C(c2c(F)c(S(=O)(=O)NC3(C#N)CC3)cc3c(-c4nnc(C(F)F)s4)nn(C)c23)CC1 [Compound 3]
IC50 (PARG (389-976)): 0.19 nM
AUC(0-inf) [1, 3]: 33700 ng·h/mL
AUC(0-t) [1, 3]: 33700 ng·h/mL
clearance [1, 3]: 2.47 mL/min/kg
AUC(0-inf) ([1]; Oral administration (10mg/kg)): 12000 ng·h/mL
AUC(0-t) ([1]; Oral administration (10mg/kg)): 12000 ng·h/mL
Cmax ([1]; Oral administration (10mg/kg)): 3300 ng/mL
IC50 (HCC1395): 0.0992 µM

CC1=C(c2c(F)c(S(=O)(=O)NC3(C#N)CC3)cc3c(-c4nnc(C(F)F)s4)nn(C)c23)CCN(S(=O)(=O)C(C)C)C1 [Compound 4]
IC50 (PARG (389-976)): 0.48 nM
AUC(0-inf) [1, 3]: 20300 ng·h/mL
AUC(0-t) [1, 3]: 18400 ng·h/mL
clearance [1, 3]: 4.17 mL/min/kg
AUC(0-inf) ([1]; Oral administration (10mg/kg)): 11300 ng·h/mL
AUC(0-t) ([1]; Oral administration (10mg/kg)): 11000 ng·h/mL
Cmax ([1]; Oral administration (10mg/kg)): 2010 ng/mL
IC50 (HCC1395): 0.0445 µM

CC1=C(c2c(F)c(S(=O)(=O)NC3(C)CC3)cc3c(-c4nnc(C(F)(F)F)s4)nn(C)c23)CCN(S(=O)(=O)C(C)C)C1 [Compound 5]
IC50 (PARG (389-976)): 0.43 nM
IC50 (HCC1395): 0.043 µM

CC(C)S(=O)(=O)N1CC=C(c2c(F)c(S(=O)(=O)NC3(C)CC3)cc3c(-c4nnc(C(F)(F)F)s4)nn(C)c23)CC1 [Compound 6]
IC50 (PARG (389-976)): 0.35 nM
IC50 (HCC1395): 0.0913 µM

CC(C)S(=O)(=O)N1CC=C(c2c(F)c(S(=O)(=O)NC3(C)CC3)cc3c(-c4nnc(C(F)F)s4)nn(C)c23)CC1 [Compound 7]
IC50 (PARG (389-976)): 0.21 nM
IC50 (HCC1395): 0.074 µM

CC1=C(c2c(F)c(S(=O)(=O)NC3(C)CC3)cc3c(-c4nnc(C(F)F)s4)nn(C)c23)CCN(S(=O)(=O)C(C)C)C1 [Compound 8]
IC50 (PARG (389-976)): 0.17 nM
IC50 (HCC1395): 0.0322 µM

CC(C)C(=O)N1CC=C(c2c(F)c(S(=O)(=O)NC3(C#N)CC3)cc3c(-c4nnc(C(F)F)s4)nn(C)c23)CC1 [Compound 9]
IC50 (PARG (389-976)): 0.56 nM
AUC(0-inf) [1, 3]: 8560 ng·h/mL
AUC(0-t) [1, 3]: 8550 ng·h/mL
clearance [1, 3]: 9.8 mL/min/kg
AUC(0-inf) ([1]; Oral administration (10mg/kg)): 11500 ng·h/mL
AUC(0-t) ([1]; Oral administration (10mg/kg)): 11500 ng·h/mL
Cmax ([1]; Oral administration (10mg/kg)): 6160 ng/mL
IC50 (HCC1395): 0.0446 µM

CC(C)C(=O)N1CC=C(c2c(F)c(S(=O)(=O)NC3(C#N)CC3)cc3c(-c4nnc(C(F)(F)F)s4)nn(C)c23)CC1 [Compound 10]
IC50 (PARG (389-976)): 1.24 nM

CC(C)C(=O)N1CC=C(c2c(F)c(S(=O)(=O)NC3(C)CC3)cc3c(-c4nnc(C(F)F)s4)nn(C)c23)CC1 [Compound 11]
IC50 (PARG (389-976)): 0.7 nM

CCC1=C(c2c(F)c(S(=O)(=O)NC3(C#N)CC3)cc3c(-c4nnc(C(F)(F)F)s4)nn(C)c23)CCN(S(=O)(=O)C(C)C)C1 [Compound 13]
AUC(0-inf) [1, 4]: 35900 ng·h/mL
AUC(0-t) [1, 4]: 35900 ng·h/mL
clearance [1, 4]: 2.32 mL/min/kg
AUC(0-inf) [1, 5]: 25400 ng·h/mL
AUC(0-t) [1, 5]: 25400 ng·h/mL
Cmax [1, 5]: 2500 ng/mL
IC50 (HCC1395): 0.0313 µM
